The target in this assay is T1, human B1R (Homo sapiens, UniProt P46663).
T1 construct: expressed in transfected cells; host or cells: CHO K1 cells (Chinese Hamster Ovary), stably transfected
T1 sequence (P46663 1-353): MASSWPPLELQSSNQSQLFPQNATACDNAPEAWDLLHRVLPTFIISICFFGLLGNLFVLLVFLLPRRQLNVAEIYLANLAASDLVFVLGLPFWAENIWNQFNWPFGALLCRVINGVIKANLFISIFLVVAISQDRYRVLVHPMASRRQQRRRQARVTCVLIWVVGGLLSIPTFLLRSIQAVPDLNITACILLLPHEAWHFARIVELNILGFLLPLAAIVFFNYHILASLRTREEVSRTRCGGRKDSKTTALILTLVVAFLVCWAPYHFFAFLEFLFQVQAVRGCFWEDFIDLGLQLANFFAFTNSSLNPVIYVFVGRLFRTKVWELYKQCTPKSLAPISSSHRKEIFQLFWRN
Briefly: Functional assay at bradykinin receptor 1 (B1R): Ca2+ fluorescence (Fluo-4) in FLIPR/Novostar, antagonist mode. The class given is cell-based. The settings on record: test substance 10 µM; CHO K1 cells stably transfected with human B1R gene (hB1R-Zellen); agonist Lys-Des-Arg9-Bradykinin at EC80; % inhibition relative to maximal achievable inhibition; read-out: % Inhibierung (human B1R) bei 10 µM. As for the experimental part:
Die agonistische bzw. antagonistische Wirkung von Substanzen kann am Bradykinin Rezeptor 1 (B1R) der Spezies Mensch und Ratte mit ektopisch exprimierenden Zelllinien (CHO K1 Zellen) und mit Hilfe eines Ca^2+-sensitiven Farbstoffs (Fluo-4) im Fluorescent Imaging Plate Reader (FLIPR) quantifiziert werden. Die Angabe in % Aktivierung wird bezogen auf das Ca^2+-Signal nach Zugabe von Lys-Des-Arg^9-Bradykinin ([…]), bzw. Des-Arg^9-Bradykinin (100 nM). Antagonisten führen zu einer Unterdrückung des Ca^2+-Einstroms nach der Zugabe des Agonisten. Angegeben werden % Inhibition im Vergleich zu der maximal erreichbaren Inhibition.
Die agonistische bzw. antagonistische Wirkung von Substanzen kann am Bradykinin Rezeptor 1 (B1R) der Spezies Mensch und Ratte mit folgendem Assay bestimmt werden. Gemäß diesem Assay wird der intrazelluläre Ca^2+-Anstieg nach Gabe eines B1 R Agonisten mit Hilfe eines Ca^2+-sensitiven Farbstoffs (Typ Fluo-4, Molecular Probes Europe BV, Leiden NL) im Fluorescent Imaging Plate Reader (FLIPR, Molecular Devices, Sunnyvale, USA) und/oder im Novostar (BMG Labtech GmbH, Offenburg, DE) quantifiziert.
Es werden Chinese Hamster Ovary Zellen (CHO K1 Zellen) verwendet, die stabil mit dem humanen B1 R-Gen (hB1R-Zellen) bzw. dem B1 R-Gen der Ratte (rB1R-Zellen) transfiziert sind. Für funktionelle Untersuchungen werden diese Zellen auf schwarze 96-Loch-Platten mit klarem Boden (BD Biosciences, Heidelberg, DE oder Greiner, Frickenhausen, DE) in einer Dichte von 20.000 - 35.000 Zellen/Loch ausplattiert. Über Nacht werden die Zellen bei 37°C und 5 % CO2 in Kulturmedium (hB1 R-Zellen: Nutrient Mixture Ham's F12, Gibco Invitrogen GmbH, Karlsruhe, Deutschland oder DMEM, Sigma-Aldrich, Taufkirchen, Deutschland; rB1R-Zellen: D-MEM/F12, Gibco Invitrogen GmbH, Karlsruhe, DE) mit 10 Vol-% FBS (Fetal bovine serum, Gibco Invitrogen GmbH, Karlsruhe, DE oder PAN Biotech GmbH, Aidenbach, DE) belassen. Am folgenden Tag werden die Zellen mit 2,13 µM Fluo-4 (Molecular Probes Europe BV, Leiden, NL) in HBSS-Puffer (Hank's buffered saline solution, Gibco Invitrogen GmbH, Karlsruhe, DE) mit 2,5 mM Probenecid (Sigma-Aldrich, Taufkirchen, DE) und 10 mM HEPES (Sigma-Aldrich, Taufkirchen, DE) für 60 min bei 37°C beladen. Anschließend werden die Platten 2 x mit HBSS-Puffer gewaschen und mit HBSS-Puffer versetzt, der zusätzlich 0,1 % BSA (bovines Serumalbumin; Sigma-Aldrich, Taufkirchen, Deutschland), 5,6 mM Glucose und 0,05 % Gelatine (Merck KGaA, Darmstadt, DE) enthält. Nach einer weiteren Inkubation von 20 Minuten bei RT werden die Platten zur Ca^2+-Messung im FLIPR oder Novostar eingesetzt. Alternativ wird mit Puffer A (15 mM HEPES, 80 mM NaCl, 5 mM KCI, 1,2 mM CaCl2, 0,7 mM MgSO4, 2g/L Glucose, 2,5 mM Probenecid) gewaschen und mit Puffer A versetzt mit 2,5 µM Fluo-4 und 0,025 % Pluronic F127 (Sigma-Aldrich, Taufkirchen, DE) beladen. Danach werden die Zellen 2 x mit Puffer A gewaschen und für 30 Minuten mit Puffer A, der zusätzlich 0,05 % BSA und 0,05 % Gelatine enthält bei RT inkubiert und danach zur Ca^2+-Messung im FLIPR oder Novostar eingesetzt.
Die Ca^2+-abhängige Fluoreszenz wird dabei vor und nach Zugabe von Substanzen gemessen (λex = 488 nm, λem = 540 nm). Die Quantifizierung erfolgt durch die Messung der höchsten Fluoreszenzintensität (FC, Fluorescence Counts) über die Zeit.
Das FLIPR-Protokoll besteht aus 2 Substanzzugaben, die im FLIPR pipettiert werden. Bei Messungen im Novostar wird nur die zweite Substanzzugabe im Gerät pipettiert. Beide Geräte messen die Fluoreszenzintensität über die Zeit. Zunächst werden Testsubstanzen (10 µM) auf die Zellen pipettiert und der intrazelluläre Ca^2+-Anstieg mit der Kontrolle (hB1 R: Lys-Des-Arg^9-Bradykinin >= 50 nM; rB1 R: Des-Arg^9-Bradykinin >= 1 µM) verglichen. Daraus ergibt sich die Angabe in % Aktivierung bezogen auf das Ca^2+-Signal nach Zugabe von Lys-Des-Arg^9-Bradykinin (>= 50 nM), bzw. Des-Arg^9-Bradykinin (>=1 µM). Nach 6-20 Minuten Inkubation werden Lys-Des-Arg^9-Bradykinin (hB1 R) bzw. […]

The structures appear in SMILES notation.

As for `COc1cc(C)c(S(=O)(=O)Cc2noc(C(=O)NC3CCC(N4CCCC4)CC3(C)C)n2)c(C)c1` (stereo not shown) [CC-21, N-(2,2-Dimethyl-4-pyrrolidin-1-yl-cyclohexyl)-3-[[(4-methoxy-2,6-dimethyl-phenyl)sulfonyl]-methyl]-[1,2,4]oxadiazol-5-carbonsäure amid], the inhibition at 10 µM came to 100%.
`Cc1cc(S(=O)(=O)Cc2noc(C(=O)NC3CCC(N4CCCC4)CC3(C)C)n2)c(C)cc1Cl` (stereo not shown) [CC-22, 3-[[(4-Chlor-2,5-dimethyl-phenyl)sulfonyl]-methyl]-N-(2,2-dimethyl-4-pyrrolidin-1-yl-cyclohexyl)-[1,2,4]oxadiazol-5-carbonsäure amid]: the inhibition at 10 µM was 100%.
The figure for `COc1cc(C)c(S(=O)(=O)Cc2noc(CC(=O)NC3CCC(N4CCCC4)CC3(C)C)n2)c(C)c1` (stereo not shown) [CC-23, N-(2,2-Dimethyl-4-pyrrolidin-1-yl-cyclohexyl)-2-[3-[[(4-methoxy-2,6-dimethyl-phenyl)sulfonyl]-methyl]-[1,2,4]oxadiazol-5-yl]-acetamid] is 100%.
`Cc1cc(S(=O)(=O)Cc2noc(C(=O)NC3CCNCC3(C)C)n2)c(C)cc1Cl` (stereo not shown) [CC-24, 3-[[(4-Chlor-2,5-dimethyl-phenyl)sulfonyl]-methyl]-N-(3,3-dimethyl-piperidin-4-yl)-[1,2,4]oxadiazol-5-carbonsäure amid]: the inhibition at 10 µM came out at 86%.
With `COc1cc(C)c(S(=O)(=O)Cc2nc(CC(=O)NC3CCC(N4CCCC4)CC3(C)C)no2)c(C)c1` (stereo not shown) [CC-26, N-(2,2-Dimethyl-4-pyrrolidin-1-yl-cyclohexyl)-2-[5-[[(4-methoxy-2,6-dimethyl-phenyl)sulfonyl]-methyl]-[1,2,4]oxadiazol-3-yl]-acetamid] the figure was 100%; with `COCCN1CCC(NC(=O)Cc2noc(CS(=O)(=O)c3c(C)cc(OC)cc3C)n2)C(C)(C)C1` (stereo not shown) [CC-27, 2-[5-[[(4-Methoxy-2,6-dimethyl-phenyl)sulfonyl]-methyl]-[1,2,4]oxadiazol-3-yl]-N-[1-(2-methoxy-ethyl)-3,3-dimethyl-piperidin-4-yl]-acetamid], 100%.
The figure for `COc1cc(C)c(S(=O)(=O)Cc2nc(CC(=O)NC3CCC(N(C)C)CC3)no2)c(C)c1` (stereo not shown) [CC-28, N-(4-Dimethylamino-cyclohexyl)-2-[5-[[(4-methoxy-2,6-dimethyl-phenyl)sulfonyl]-methyl]-[1,2,4]oxadiazol-3-yl]-acetamid] is 100%; for `COc1cc(C)c(S(=O)(=O)Cc2nnc(CC(=O)NC3CCC(N4CCCC4)CC3(C)C)o2)c(C)c1` (stereo not shown) [CC-29, N-(2,2-Dimethyl-4-pyrrolidin-1-yl-cyclohexyl)-2-[5-[[(4-methoxy-2,6-dimethyl-phenyl)sulfonyl]-methyl]-[1,3,4]oxadiazol-2-yl]-acetamid] it is 100%; for `COc1cc(C)c(S(=O)(=O)Cc2nc(CC(=O)NC3CCN(C(C)=O)CC3(C)C)no2)c(C)c1` (stereo not shown) [CC-30, N-(1-Acetyl-3,3-dimethyl-piperidin-4-yl)-2-[5-[[(4-methoxy-2,6-dimethyl-phenyl)sulfonyl]-methyl]-[1,2,4]oxadiazol-3-yl]-acetamid] it is 90%.
The figure for `COCCN1CCC(NC(=O)Cc2nnc(CS(=O)(=O)c3c(C)cc(OC)cc3C)o2)C(C)(C)C1` (stereo not shown) [CC-31, 2-[5-[[(4-Methoxy-2,6-dimethyl-phenyl)sulfonyl]-methyl]-[1,3,4]oxadiazol-2-yl]-N-[1-(2-methoxy-ethyl)-3,3-dimethyl-piperidin-4-yl]-acetamid] is 100%; for `COc1cc(C)c(S(=O)(=O)Cc2nc(CC(=O)NC3CCC(N4CCCC4)CC3)no2)c(C)c1` (stereo not shown) [CC-32, 2-[5-[[(4-Methoxy-2,6-dimethyl-phenyl)sulfonyl]-methyl]-[1,2,4]oxadiazol-3-yl]-N-(4-pyrrolidin-1-yl-cyclohexyl)-acetamid] it is 100%.
On to `COc1cc(C)c(S(=O)(=O)Cc2nc(CC(=O)NC3CCC(N4CCN(C)CC4)CC3(C)C)no2)c(C)c1` (stereo not shown) [CC-33, N-[2,2-Dimethyl-4-(4-methyl-piperazin-1-yl)-cyclohexyl]-2-[5-[[(4-methoxy-2,6-dimethyl-phenyl)sulfonyl]-methyl]-[1,2,4]oxadiazol-3-yl]-acetamid], for which the inhibition at 10 µM came out at 100%.
The figure for `COc1cc(C)c(S(=O)(=O)Cc2nnc(CC(=O)NC3CCC(N(C)C)CC3)o2)c(C)c1` (stereo not shown) [CC-34, N-(4-Dimethylamino-cyclohexyl)-2-[5-[[(4-methoxy-2,6-dimethyl-phenyl)sulfonyl]-methyl]-[1,3,4]oxadiazol-2-yl]-acetamid] is 100%; for `COc1cc(C)c(S(=O)(=O)Cc2nc(CC(=O)NC3CCC(NC4CC4)CC3(C)C)no2)c(C)c1` (stereo not shown) [CC-35, N-[4-(Cyclopropylamino)-2,2-dimethyl-cyclohexyl]-2-[5-[[(4-methoxy-2,6-dimethyl-phenyl)sulfonyl]-methyl]-[1,2,4]oxadiazol-3-yl]-acetamid] it is 100%; for `COc1cc(C)c(S(=O)(=O)Cc2nnc(CC(=O)NC3CCC(c4ccncc4)CC3(C)C)o2)c(C)c1` (stereo not shown) [CC-36, N-(2,2-Dimethyl-4-pyridin-4-yl-cyclohexyl)-2-[5-[[(4-methoxy-2,6-dimethyl-phenyl)sulfonyl]-methyl]-[1,3,4]oxadiazol-2-yl]-acetamid] it is 100%.
The figure for `COc1cc(C)c(S(=O)(=O)Cc2nc(CC(=O)NC3CCC(c4ccncc4)CC3(C)C)no2)c(C)c1` (stereo not shown) [CC-37, N-(2,2-Dimethyl-4-pyridin-4-yl-cyclohexyl)-2-[5-[[(4-methoxy-2,6-dimethyl-phenyl)sulfonyl]-methyl]-[1,2,4]oxadiazol-3-yl]-acetamid] is 99%; for `COc1cc(C)c(S(=O)(=O)Cc2nnc(CC(=O)NC3CCC(N4CCCC4)CC3)o2)c(C)c1` (stereo not shown) [CC-40] it is 100%; for `COc1cc(C)c(S(=O)(=O)Cc2nc(CC(=O)NC3CCNCC3)no2)c(C)c1` [CC-42, 2-[5-[[(4-Methoxy-2,6-dimethyl-phenyl)sulfonyl]-methyl]-[1,2,4]oxadiazol-3-yl]-N-piperidin-4-yl-acetamid] it is 100%.
The figure for `Cc1cc(S(=O)(=O)Cc2noc(CC(=O)NC3CCC(N4CCCC4)CC3(C)C)n2)c(C)cc1Cl` (stereo not shown) [CC-43, 2-[3-[[(4-Chlor-2,5-dimethyl-phenyl)sulfonyl]-methyl]-[1,2,4]oxadiazol-5-yl]-N-(2,2-dimethyl-4-pyrrolidin-1-yl-cyclohexyl)-acetamid] is 99%.

These data come from patent EP2857388A1, “Azoles containing sulfone” (Grünenthal GmbH, priority 2013, dated 2015).
